# According to PMC4716540 (British Journal of Cancer, 2015):
# System: patients with confirmed relapsed/refractory MM, CLL, or NHL
# Test: Phase I safety and tolerability: adverse events, DLT, MTD, RP2D
# Type: in vivo, human
smiles,measurement,setting,value
CCc1c(O)cc(O)c(C(=O)c2ccc(OCCN3CCOCC3)c(OC)c2)c1CC(=O)N(CCOC)CCOC [KW-2478],Number of treatment-related AEs per patient (average),14 mg m^–2,1.0
same,AE (treatment-emergent),14 mg m^–2 (n=3),3 (100.0) No. of patients (%)
same,Abdominal pain (any AE),14 mg m^–2 (n=3),0 No. of patients (%)
same,Acne (any AE),14 mg m^–2 (n=3),0 No. of patients (%)
same,Anaemia (any AE),14 mg m^–2 (n=3),0 No. of patients (%)
same,Anorexia (any AE),14 mg m^–2 (n=3),0 No. of patients (%)
same,Back pain (any AE),14 mg m^–2 (n=3),1 (33.3) No. of patients (%)
same,Diarrhoea (any AE),14 mg m^–2 (n=3),0 No. of patients (%)
same,Dizziness (any AE),14 mg m^–2 (n=3),0 No. of patients (%)
same,Fatigue (any AE),14 mg m^–2 (n=3),1 (33.3) No. of patients (%)
same,Haemoglobin decreased (any AE),14 mg m^–2 (n=3),0 No. of patients (%)
same,Hair disorder (any AE),14 mg m^–2 (n=3),0 No. of patients (%)
same,Headache (any AE),14 mg m^–2 (n=3),1 (33.3) No. of patients (%)
same,Herpes simplex infection (any AE),14 mg m^–2 (n=3),0 No. of patients (%)
same,Hypertension (any AE),14 mg m^–2 (n=3),0 No. of patients (%)
same,LRTI (any AE),14 mg m^–2 (n=3),0 No. of patients (%)
same,Musculoskeletal chest pain (any AE),14 mg m^–2 (n=3),0 No. of patients (%)
same,Nausea (any AE),14 mg m^–2 (n=3),1 (33.3) No. of patients (%)
same,Oral herpes (any AE),14 mg m^–2 (n=3),0 No. of patients (%)
same,Rhinitis (any AE),14 mg m^–2 (n=3),1 (33.3) No. of patients (%)
same,Serious AE,14 mg m^–2 (n=3),0 No. of patients (%)
same,Treatment-related AE,14 mg m^–2 (n=3),2 (66.7) No. of patients (%)
same,Vomiting (any AE),14 mg m^–2 (n=3),0 No. of patients (%)
same,AE (treatment-emergent),28 mg m^–2 (n=3),3 (100.0) No. of patients (%)
same,Abdominal pain (any AE),28 mg m^–2 (n=3),0 No. of patients (%)
same,Acne (any AE),28 mg m^–2 (n=3),1 (33.3) No. of patients (%)
same,Anaemia (any AE),28 mg m^–2 (n=3),0 No. of patients (%)
same,Anorexia (any AE),28 mg m^–2 (n=3),0 No. of patients (%)
same,Back pain (any AE),28 mg m^–2 (n=3),1 (33.3) No. of patients (%)
same,Diarrhoea (any AE),28 mg m^–2 (n=3),0 No. of patients (%)
same,Dizziness (any AE),28 mg m^–2 (n=3),0 No. of patients (%)
same,Fatigue (any AE),28 mg m^–2 (n=3),0 No. of patients (%)
same,Haemoglobin decreased (any AE),28 mg m^–2 (n=3),0 No. of patients (%)
same,Hair disorder (any AE),28 mg m^–2 (n=3),1 (33.3) No. of patients (%)
same,Headache (any AE),28 mg m^–2 (n=3),0 No. of patients (%)
same,Herpes simplex infection (any AE),28 mg m^–2 (n=3),1 (33.3) No. of patients (%)
same,Hypertension (any AE),28 mg m^–2 (n=3),0 No. of patients (%)
same,LRTI (any AE),28 mg m^–2 (n=3),0 No. of patients (%)
same,Musculoskeletal chest pain (any AE),28 mg m^–2 (n=3),0 No. of patients (%)
same,Nausea (any AE),28 mg m^–2 (n=3),1 (33.3) No. of patients (%)
same,Oral herpes (any AE),28 mg m^–2 (n=3),1 (33.3) No. of patients (%)
same,Rhinitis (any AE),28 mg m^–2 (n=3),1 (33.3) No. of patients (%)
same,Serious AE,28 mg m^–2 (n=3),0 No. of patients (%)
same,Treatment-related AE,28 mg m^–2 (n=3),2 (66.7) No. of patients (%)
same,Vomiting (any AE),28 mg m^–2 (n=3),1 (33.3) No. of patients (%)
same,AE (treatment-emergent),47 mg m^–2 (n=4),4 (100.0) No. of patients (%)
same,Abdominal pain (any AE),47 mg m^–2 (n=4),0 No. of patients (%)
same,Acne (any AE),47 mg m^–2 (n=4),1 (25.0) No. of patients (%)
same,Anaemia (any AE),47 mg m^–2 (n=4),1 (25.0) No. of patients (%)
same,Anorexia (any AE),47 mg m^–2 (n=4),0 No. of patients (%)
same,Back pain (any AE),47 mg m^–2 (n=4),0 No. of patients (%)
same,Diarrhoea (any AE),47 mg m^–2 (n=4),2 (50.0) No. of patients (%)
same,Dizziness (any AE),47 mg m^–2 (n=4),0 No. of patients (%)
same,Fatigue (any AE),47 mg m^–2 (n=4),0 No. of patients (%)
same,Haemoglobin decreased (any AE),47 mg m^–2 (n=4),0 No. of patients (%)
same,Hair disorder (any AE),47 mg m^–2 (n=4),1 (25.0) No. of patients (%)
same,Headache (any AE),47 mg m^–2 (n=4),0 No. of patients (%)
same,Herpes simplex infection (any AE),47 mg m^–2 (n=4),0 No. of patients (%)
same,Hypertension (any AE),47 mg m^–2 (n=4),2 (50.0) No. of patients (%)
same,LRTI (any AE),47 mg m^–2 (n=4),0 No. of patients (%)
same,Musculoskeletal chest pain (any AE),47 mg m^–2 (n=4),0 No. of patients (%)
same,Nausea (any AE),47 mg m^–2 (n=4),0 No. of patients (%)
same,Oral herpes (any AE),47 mg m^–2 (n=4),0 No. of patients (%)
same,Rhinitis (any AE),47 mg m^–2 (n=4),1 (25.0) No. of patients (%)
same,Serious AE,47 mg m^–2 (n=4),0 No. of patients (%)
same,Treatment-related AE,47 mg m^–2 (n=4),3 (75.0) No. of patients (%)
same,Vomiting (any AE),47 mg m^–2 (n=4),1 (25.0) No. of patients (%)
same,AE (treatment-emergent),71 mg m^–2 (n=4),4 (100.0) No. of patients (%)
same,Abdominal pain (any AE),71 mg m^–2 (n=4),0 No. of patients (%)
same,Acne (any AE),71 mg m^–2 (n=4),1 (25.0) No. of patients (%)
same,Anaemia (any AE),71 mg m^–2 (n=4),0 No. of patients (%)
same,Anorexia (any AE),71 mg m^–2 (n=4),0 No. of patients (%)
same,Back pain (any AE),71 mg m^–2 (n=4),0 No. of patients (%)
same,Diarrhoea (any AE),71 mg m^–2 (n=4),2 (50.0) No. of patients (%)
same,Dizziness (any AE),71 mg m^–2 (n=4),2 (50.0) No. of patients (%)
same,Fatigue (any AE),71 mg m^–2 (n=4),1 (25.0) No. of patients (%)
same,Haemoglobin decreased (any AE),71 mg m^–2 (n=4),1 (25.0) No. of patients (%)
same,Hair disorder (any AE),71 mg m^–2 (n=4),1 (25.0) No. of patients (%)
same,Headache (any AE),71 mg m^–2 (n=4),2 (50.0) No. of patients (%)
same,Herpes simplex infection (any AE),71 mg m^–2 (n=4),1 (25.0) No. of patients (%)
same,Hypertension (any AE),71 mg m^–2 (n=4),2 (50.0) No. of patients (%)
same,LRTI (any AE),71 mg m^–2 (n=4),1 (25.0) No. of patients (%)
same,Musculoskeletal chest pain (any AE),71 mg m^–2 (n=4),0 No. of patients (%)
same,Nausea (any AE),71 mg m^–2 (n=4),2 (50.0) No. of patients (%)
same,Oral herpes (any AE),71 mg m^–2 (n=4),1 (25.0) No. of patients (%)
same,Rhinitis (any AE),71 mg m^–2 (n=4),1 (25.0) No. of patients (%)
same,Serious AE,71 mg m^–2 (n=4),2 (50) No. of patients (%)
same,Treatment-related AE,71 mg m^–2 (n=4),4 (100.0) No. of patients (%)
same,Death,"71 mg m^–2 (n=4), considered unrelated to medication",1 (25) No. of patients (%)
same,AE (treatment-emergent),99 mg m^–2 (n=4),4 (100.0) No. of patients (%)
